Measured values published in ChEMBL document CHEMBL5038669, “Development of the First Covalent Monopolar Spindle Kinase 1 (MPS1/TTK) Inhibitor” (J Med Chem, 2022).
Activity calls are given as the source filed them. No cut-off for these calls is given here.

Assays:
[1] = Microsomal stability in mouse liver microsomes assessed as half life at 100 uM pre-incubated for 5 mins with NADPH- regenerating system followed by liver microsomal addition and measured upto 120 mins by HPLC analysis; format: ADME, Microsome; details: time <=125 min
[2] = target: T1, Dual specificity protein kinase TTK (Homo sapiens, UniProt P33981); assay: Inhibition of recombinant human full length N-terminal GST-fused MPS1 (1 to 857 residues) using histone H3 as substrate measured immediately in presence of DTT by TR-FRET assay
T1 sequence (P33981 whole entry): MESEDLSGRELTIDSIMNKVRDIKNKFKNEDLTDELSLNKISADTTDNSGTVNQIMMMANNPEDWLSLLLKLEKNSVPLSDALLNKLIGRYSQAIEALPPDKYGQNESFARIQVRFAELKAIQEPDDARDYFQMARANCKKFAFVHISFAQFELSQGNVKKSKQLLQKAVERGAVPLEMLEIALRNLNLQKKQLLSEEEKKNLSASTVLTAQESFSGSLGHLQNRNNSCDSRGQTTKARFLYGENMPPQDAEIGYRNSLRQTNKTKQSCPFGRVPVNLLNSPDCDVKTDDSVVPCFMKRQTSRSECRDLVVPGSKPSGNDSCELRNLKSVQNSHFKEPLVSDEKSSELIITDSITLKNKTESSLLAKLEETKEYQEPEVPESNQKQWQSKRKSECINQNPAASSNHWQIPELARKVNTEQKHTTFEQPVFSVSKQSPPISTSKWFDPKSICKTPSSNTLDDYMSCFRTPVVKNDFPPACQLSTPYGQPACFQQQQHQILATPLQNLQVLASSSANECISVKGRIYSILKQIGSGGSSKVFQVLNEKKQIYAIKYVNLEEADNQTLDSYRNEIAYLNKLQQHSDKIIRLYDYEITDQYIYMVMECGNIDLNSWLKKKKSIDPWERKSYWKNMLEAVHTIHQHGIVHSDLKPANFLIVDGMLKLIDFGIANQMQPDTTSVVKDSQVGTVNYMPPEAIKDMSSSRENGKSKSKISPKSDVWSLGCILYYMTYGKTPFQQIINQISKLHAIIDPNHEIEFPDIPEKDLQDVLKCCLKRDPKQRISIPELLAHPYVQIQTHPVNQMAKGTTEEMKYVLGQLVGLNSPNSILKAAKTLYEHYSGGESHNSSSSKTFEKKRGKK

[3] = target: T1, Dual specificity protein kinase TTK; assay: Inhibition of recombinant human full length N-terminal GST-fused MPS1 (1 to 857 residues) using histone H3 as substrate measured after 1 hr in presence of DTT by TR-FRET assay
[4] = target: T1, Dual specificity protein kinase TTK; assay: Inhibition of recombinant human full length N-terminal GST-fused MPS1 (1 to 857 residues) using histone H3 as substrate measured after 2 hrs in presence of DTT by TR-FRET assay
[5] = target: T1, Dual specificity protein kinase TTK; assay: Inhibition of recombinant human full length N-terminal GST-fused MPS1 (1 to 857 residues) using histone H3 as substrate measured after 4 hrs in presence of DTT by TR-FRET assay
[6] = target: T2, Dual specificity protein kinase TTK (Homo sapiens) (UniProt P33981); assay: Covalent inhibition of human full length N-terminal GST-fused MPS1 (1 to 857 residues) assessed as Kinact by TR-FRET assay
T2 sequence (whole entry): T1 sequence (P33981 whole entry)

[7] = target: T1, Dual specificity protein kinase TTK; assay: Covalent inhibition of human full length N-terminal GST-fused MPS1 (1 to 857 residues) assessed as inhibition constant by TR-FRET assay
[8] = target: T2, Dual specificity protein kinase TTK (Homo sapiens); assay: Covalent inhibition of human full length N-terminal GST-fused MPS1 (1 to 857 residues) assessed as Kinact/Ki ratio by TR-FRET assay
[9] = target: T1, Dual specificity protein kinase TTK; assay: Displacement of tracer K9 from NanoLuc-fused MPS1 (unknown origin) expressed in HEK293T cells measured after 2 hrs by NanoBRET assay; format: cell-based
[10] = target: Fibroblast growth factor receptor 4 (Homo sapiens, UniProt P22455); assay: Inhibition of human recombinant FGFR4 expressed in Sf9 insect cells using poly[Glu:Tyr] 4:1 as substrate in presence of [33P]-ATP by radiometric hotspot kinetic assay
Sequence of Fibroblast growth factor receptor 4 (P22455 whole entry): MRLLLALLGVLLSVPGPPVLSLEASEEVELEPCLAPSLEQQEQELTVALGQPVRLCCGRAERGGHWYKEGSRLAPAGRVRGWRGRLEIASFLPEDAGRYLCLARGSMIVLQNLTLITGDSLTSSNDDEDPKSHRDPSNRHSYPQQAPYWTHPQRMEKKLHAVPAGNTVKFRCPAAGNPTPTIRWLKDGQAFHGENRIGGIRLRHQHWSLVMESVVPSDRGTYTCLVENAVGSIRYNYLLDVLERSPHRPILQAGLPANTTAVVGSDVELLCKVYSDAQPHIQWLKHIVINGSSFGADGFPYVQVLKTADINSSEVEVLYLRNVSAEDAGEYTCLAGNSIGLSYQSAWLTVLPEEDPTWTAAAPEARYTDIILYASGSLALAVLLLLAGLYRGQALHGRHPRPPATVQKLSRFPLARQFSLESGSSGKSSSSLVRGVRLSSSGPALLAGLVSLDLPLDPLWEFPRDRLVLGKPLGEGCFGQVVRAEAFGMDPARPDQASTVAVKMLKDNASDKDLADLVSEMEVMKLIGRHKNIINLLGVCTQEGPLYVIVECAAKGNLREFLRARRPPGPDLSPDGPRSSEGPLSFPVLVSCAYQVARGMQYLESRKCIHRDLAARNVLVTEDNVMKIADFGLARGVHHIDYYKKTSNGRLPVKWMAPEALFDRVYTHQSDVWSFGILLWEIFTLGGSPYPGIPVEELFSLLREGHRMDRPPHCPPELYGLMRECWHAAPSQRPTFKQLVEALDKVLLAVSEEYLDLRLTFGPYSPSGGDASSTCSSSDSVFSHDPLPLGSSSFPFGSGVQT

[11] = target: MAP kinase-activated protein kinase 2 (Homo sapiens, UniProt P49137); assay: Inhibition of human recombinant MAPKAPK2 expressed in Sf9 insect cells using [KKLNRTLSVA] as substrate in presence of [33P]-ATP by radiometric hotspot kinetic assay
Sequence of MAP kinase-activated protein kinase 2 (P49137 whole entry): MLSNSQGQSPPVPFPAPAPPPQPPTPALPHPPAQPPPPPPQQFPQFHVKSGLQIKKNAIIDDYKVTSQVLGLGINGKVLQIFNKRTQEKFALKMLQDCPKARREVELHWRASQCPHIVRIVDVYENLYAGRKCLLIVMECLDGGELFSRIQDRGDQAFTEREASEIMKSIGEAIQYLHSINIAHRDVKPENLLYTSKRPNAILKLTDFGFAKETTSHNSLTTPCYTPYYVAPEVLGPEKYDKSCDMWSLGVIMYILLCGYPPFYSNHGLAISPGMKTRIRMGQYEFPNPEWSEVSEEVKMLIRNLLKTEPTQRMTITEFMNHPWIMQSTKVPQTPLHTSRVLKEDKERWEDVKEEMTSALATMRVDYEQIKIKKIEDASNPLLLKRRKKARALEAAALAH

[12] = target: MAP kinase-activated protein kinase 3 (Homo sapiens, UniProt Q16644); assay: Inhibition of human recombinant MAPKAPK3 expressed in Sf9 insect cells using [KKLNRTLSVA] as substrate in presence of [33P]-ATP by radiometric hotspot kinetic assay
Sequence of MAP kinase-activated protein kinase 3 (Q16644 whole entry): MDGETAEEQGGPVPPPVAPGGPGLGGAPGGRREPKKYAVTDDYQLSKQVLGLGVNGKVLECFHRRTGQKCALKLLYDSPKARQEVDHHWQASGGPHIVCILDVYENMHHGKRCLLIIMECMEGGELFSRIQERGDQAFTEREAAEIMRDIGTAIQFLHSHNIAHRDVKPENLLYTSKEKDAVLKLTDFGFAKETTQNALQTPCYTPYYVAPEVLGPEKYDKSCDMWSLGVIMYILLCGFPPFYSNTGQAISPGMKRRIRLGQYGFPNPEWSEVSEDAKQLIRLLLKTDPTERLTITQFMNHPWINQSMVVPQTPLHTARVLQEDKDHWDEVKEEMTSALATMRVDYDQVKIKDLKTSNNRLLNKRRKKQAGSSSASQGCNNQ

[13] = target: Ribosomal protein S6 kinase beta-2 (Homo sapiens, UniProt Q9UBS0); assay: Inhibition of human recombinant P70S6Kbeta expressed in Sf9 insect cells using [KKRNRTLTK] as substrate in presence of [33P]-ATP by radiometric hotspot kinetic assay
Sequence of Ribosomal protein S6 kinase beta-2 (Q9UBS0 whole entry): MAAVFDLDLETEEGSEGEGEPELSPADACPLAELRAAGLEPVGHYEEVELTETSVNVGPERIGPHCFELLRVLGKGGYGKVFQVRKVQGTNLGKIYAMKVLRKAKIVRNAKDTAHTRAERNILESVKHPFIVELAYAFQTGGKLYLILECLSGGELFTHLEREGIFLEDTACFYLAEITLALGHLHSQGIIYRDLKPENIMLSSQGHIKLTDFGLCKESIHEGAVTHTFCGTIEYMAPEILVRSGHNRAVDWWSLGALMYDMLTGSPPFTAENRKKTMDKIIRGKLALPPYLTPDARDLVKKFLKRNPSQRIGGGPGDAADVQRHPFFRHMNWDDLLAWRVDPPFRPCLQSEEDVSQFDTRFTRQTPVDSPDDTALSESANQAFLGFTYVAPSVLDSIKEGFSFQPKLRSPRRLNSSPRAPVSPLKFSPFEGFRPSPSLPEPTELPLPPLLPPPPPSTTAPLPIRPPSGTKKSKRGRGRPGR

[14] = Stability of compound in glutathione at pH 7.4 assessed as half life by HPLC analysis; format: physicochemical; details: glutathione solution, time 5 min
[15] = system: MDA-MB-231; assay: Cytotoxicity against human MDA-MB-231cells assessed as reduction in cell viability incubated for 5 days by XTT assay; format: functional, cell-based; details: time 5.0 day
[16] = system: MDA-MB-468; assay: Cytotoxicity against human MDA-MB-468 cells assessed as reduction in cell viability incubated for 5 days by XTT assay; format: functional, cell-based; details: time 5.0 day
[17] = system: HCT-15; assay: Cytotoxicity against human HCT-15 cells assessed as reduction in cell viability incubated for 5 days by XTT assay; format: functional, cell-based; details: time 5.0 day
[18] = system: HCT-116; assay: Cytotoxicity against human HCT-116 cells assessed as reduction in cell viability incubated for 5 days by XTT assay; format: functional, cell-based; details: time 5.0 day
[19] = system: HCT-116; assay: Cell cycle arrest in human HCT-116 cells assessed as accumulation in G2/M phase incubated for 3 days; format: functional, cell-based; details: time 3.0 day
[20] = system: HCT-116; assay: Induction of apoptosis in human HCT-116 cells assessed as upregulation of p53 expression measured after 3 days by Western blot analysis; format: functional, cell-based; details: time 3.0 day
[21] = system: HCT-116; assay: Induction of apoptosis in human HCT-116 cells assessed as upregulation of p21 expression measured after 3 days by Western blot analysis; format: functional, cell-based; details: time 3.0 day
[22] = system: HCT-116; assay: Induction of apoptosis in human HCT-116 cells assessed as upregulation of phospho-gammaH2A.X expression measured after 3 days by Western blot analysis; format: functional, cell-based; details: time 3.0 day
[23] = system: HCT-116; assay: Induction of apoptosis in human HCT-116 cells assessed as down regulation of cyclin B1 expression measured after 3 days by Western blot analysis; format: functional, cell-based; details: time 3.0 day
[24] = system: HCT-116; assay: Induction of apoptosis in human HCT-116 cells assessed as increase in cleaved PARP level measured for 3 days by Western blot analysis; format: functional, cell-based; details: time 3.0 day
[25] = system: SW-620; assay: Antiproliferative activity against human SW-620 cells; format: functional, cell-based
[26] = system: Huh-7; assay: Induction of apoptosis in human Huh-7 cells assessed as down regulation of cyclin B1 expression at 200 nM measured upto 5 days by Western blot analysis; format: functional, cell-based; details: time day <=5
[27] = system: Hep 3B2; assay: Induction of apoptosis in human Hep3B cells assessed as down regulation of cyclin B1 expression at 200 nM measured upto 5 days by Western blot analysis; format: functional, cell-based; details: time day <=5
[28] = system: SNU-387; assay: Induction of apoptosis in human SNU-387 cells assessed as down regulation of cyclin B1 expression at 200 nM measured upto 5 days by Western blot analysis; format: functional, cell-based; details: time day <=5
[29] = system: Hep 3B2; assay: Induction of apoptosis in human Hep3B cells assessed as increase in cleaved PARP level at 200 nM measured upto 5 days by Western blot analysis; format: functional, cell-based; details: time day <=5

half-life at 100 µM [1]: 1 h
IC50 [2]: 40.2 nM
IC50 [3]: 28.1 nM
IC50 [4]: 20 nM
IC50 [5]: 13.8 nM
Kinact [6]: 0.000242 s⁻¹
Ki [7]: 14.2 nM
Ratio [8]: 1.71 10^4/M/s
IC50 [9]: 22.4 nM
IC50 [10]: 2750 nM
IC50 [11]: > 5000 nM
IC50 [12]: > 5000 nM
IC50 [13]: 1650 nM
half-life at 100 µM [14]: 84.5 h
Compound: C=CC(=O)Nc1cc(N2CCN(C)CC2)ccc1Nc1ncc2c(n1)-n1ccc(C(=O)Nc3c(CC)cccc3CC)c1CC2
Activity [15]: Active
Activity [16]: Active
Activity [17]: Active
Activity [18]: Active
Activity [19]: Active
Activity [20]: Active
Activity [21]: Active
Activity [22]: Active
Activity [23]: Active
Activity [24]: Active
Activity [25]: Active
Activity [26]: Active
Activity [27]: Active
Activity [28]: Active
Activity [29]: Active
